Reference: PubChem BioAssay AID1259411 (Chemical Carcinogenesis Research Information System (CCRIS), 2018)
Calls of active or inactive are those of the source. How the calls were made is not given here.

Test system: rodent carcinogenicity bioassays, tumor incidence
Assay: CCRIS carcinogenicity studies
How it was run: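 Archive of carcinogenicity, mutagenicity, tumor promotion and tumor inhibition results drawn from journals, NCI reports and other sources, expert-reviewed; covers 1985-2011 and is no longer updated.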

SMILES: O=[N+]([O-])c1ccc(NCCO)c(OCCO)c1
- carcinogen call (Species: MOUSE, Strain/Sex: B6C3F1/FEMALE, Route: ORAL, Dose: 0, 5000, 10000 PPM IN FEED 7 D/WK FOR 104 WK (STUDY DURATION: 2 YR), Dose: 0, 5000, 10000 PPM IN FEED 7 D/WK FOR 104 WK (STUDY DURATION: 2 YR)): inactive; negative
- carcinogen call (Species: MOUSE, Strain/Sex: B6C3F1/MALE, Route: ORAL, Dose: 0, 5000, 10000 PPM IN FEED 7 D/WK FOR 104 WK (STUDY DURATION: 2 YR), Dose: 0, 5000, 10000 PPM IN FEED 7 D/WK FOR 104 WK (STUDY DURATION: 2 YR)): inactive; negative
- carcinogen call (Species: RAT, Strain/Sex: F344/FEMALE, Route: ORAL, Dose: 0, 5000, 10000 PPM IN FEED 7 D/WK FOR 104 WK (STUDY DURATION: 2 YR), Dose: 0, 5000, 10000 PPM IN FEED 7 D/WK FOR 104 WK (STUDY DURATION: 2 YR)): inactive; negative
- carcinogen call (Species: RAT, Strain/Sex: F344/MALE, Route: ORAL, Dose: 0, 5000, 10000 PPM IN FEED 7 D/WK FOR 104 WK (STUDY DURATION: 105 WK), Dose: 0, 5000, 10000 PPM IN FEED 7 D/WK FOR 104 WK (STUDY DURATION: 105 WK), Tumor Site: Type of Lesion: PITUITARY GLAND (PARS DISTALIS): ADENOMA): equivocal

SMILES: Nc1ccc(/C=C/c2ccccc2)cc1
- carcinogen call (Species: RAT, Strain/Sex: HOLTZMAN/FEMALE, Route: ORAL, Dose: 0, 0.0038% IN DIET FOR 13 WK BEGINNING AT WEANING (STUDY DURATION: 40 WK), Tumor Site: Type of Lesion: EAR DUCT GLAND: CARCINOMA): active; positive
- carcinogen call (Species: RAT, Strain/Sex: HOLTZMAN/FEMALE, Route: SUBCUTANEOUS, Dose: 0. 5.3 UMOL SUSPENDED IN 0.2 ML TRICAPRYLIN 1/WK FOR 5 WK (STUDY DURATION: 10 MO), Tumor Site: Type of Lesion: MAMMARY GLAND: CARCINOMA): active; positive

SMILES: CN(C)C(=O)Nc1cccc(C(F)(F)F)c1
- carcinogen call (Species: MOUSE, Strain/Sex: B6C3F1/FEMALE, Route: ORAL, Dose: 0, 500, 1000 PPM IN DIET FOR 103 WK (STUDY DURATION: 103-105 WK), Dose: 0, 500, 1000 PPM IN DIET FOR 103 WK (STUDY DURATION: 103-105 WK)): inactive; negative
- carcinogen call (Species: MOUSE, Strain/Sex: B6C3F1/FEMALE, Route: ORAL, Dose: 0, 500, 1000 PPM IN DIET FOR 103 WK (STUDY DURATION: 103-105 WK), Dose: 0, 500, 1000 PPM IN DIET FOR 103 WK (STUDY DURATION: 103-105 WK), Tumor Site: Type of Lesion: LIVER: HEPATOCELLULAR CARCINOMA OR ADENOMA): equivocal
- carcinogen call (Species: Mouse, Strain/Sex: CR CD-1/Female (60/Group), Route: Oral, Dose: 0, 10, 500, 2000 ppm of 96.1% fluometuron in diet for 104 wk, study duration 104 wk, Dose: 0, 10, 500, 2000 ppm of 96.1% fluometuron in diet for 104 wk, study duration 104 wk, Tumor Site: Type of Lesion: Lymphocytic lymphoma (highest dose only)): active; positive
- carcinogen call (Species: Mouse, Strain/Sex: CR CD-1/Male (60/Group), Route: Oral, Dose: 0, 10, 500, 2000 ppm of 96.1% fluometuron in diet for 104 wk, study duration 104 wk, Dose: 0, 10, 500, 2000 ppm of 96.1% fluometuron in diet for 104 wk, study duration 104 wk, Tumor Site: Type of Lesion: Lung: Primary pulmonary neoplasia): active; positive
- carcinogen call (Species: RAT, Strain/Sex: F344/FEMALE, Route: ORAL, Dose: 0, 125, 250 PPM IN DIET FOR 103 WK (STUDY DURATION: 103-105 WK), Dose: 0, 125, 250 PPM IN DIET FOR 103 WK (STUDY DURATION: 103-105 WK)): inactive; negative
- carcinogen call (Species: RAT, Strain/Sex: F344/MALE, Route: ORAL, Dose: 0, 125, 250 PPM IN DIET FOR 103 WK (STUDY DURATION: 103-105 WK), Dose: 0, 125, 250 PPM IN DIET FOR 103 WK (STUDY DURATION: 103-105 WK)): inactive; negative
- carcinogen call (Species: Rat, Strain/Sex: Fischer 344 CD-F/Female (60/Group), Route: Oral, Dose: 0, 10, 300, 1000 ppm of 96.1% fluometuron in diet for 2 yr, study duration 2 yr, Dose: 0, 10, 300, 1000 ppm of 96.1% fluometuron in diet for 2 yr, study duration 2 yr): inactive; negative
- carcinogen call (Species: Rat, Strain/Sex: Fischer 344 CD-F/Male (60/Group), Route: Oral, Dose: 0, 10, 300, 1000 ppm of 96.1% fluometuron in diet for 2 yr, study duration 2 yr, Dose: 0, 10, 300, 1000 ppm of 96.1% fluometuron in diet for 2 yr, study duration 2 yr): inactive; negative

SMILES: O=C(Cn1ccnc1[N+](=O)[O-])NCc1ccccc1
- carcinogen call (Species: MOUSE, Strain/Sex: SWISS/FEMALE, Route: INTRAPERITONEAL, Dose: 0, 8 UG/G BW 1/D FOR 30 DAYS (STUDY DURATION: LIFETIME), Tumor Site: Type of Lesion: LYMPHATIC SYSTEM: LYMPHOMA): active; positive
- carcinogen call (Species: MOUSE, Strain/Sex: SWISS/FEMALE, Route: INTRAPERITONEAL, Dose: 0, 8 UG/G BW 1/D FOR 60 DAYS (STUDY DURATION: LIFETIME), Tumor Site: Type of Lesion: LYMPHATIC SYSTEM: LYMPHOMA): active; positive

SMILES: CCN(CC)C(=O)Nc1ccc(OCC(O)CNC(C)(C)C)c(C(C)=O)c1 (centres undefined)
- carcinogen call (Species: MOUSE, Strain/Sex: CD-1/FEMALE, Route: ORAL, Dose: 0, 100, 300, 900 MG/KG IN DIET FOR DURATION OF STUDY (STUDY DURATION: 2 YR), Dose: 0, 100, 300, 900 MG/KG IN DIET FOR DURATION OF STUDY (STUDY DURATION: 2 YR)): inactive; negative
- carcinogen call (Species: MOUSE, Strain/Sex: CD-1/MALE, Route: ORAL, Dose: 0, 100, 300, 900 MG/KG IN DIET FOR DURATION OF STUDY (STUDY DURATION: 2 YR), Dose: 0, 100, 300, 900 MG/KG IN DIET FOR DURATION OF STUDY (STUDY DURATION: 2 YR)): inactive; negative
- carcinogen call (Species: RAT, Strain/Sex: SPRAGUE-DAWLEY/FEMALE, Route: ORAL, Dose: 0, 100, 300, 900 MG/KG IN DIET FOR 316 D THEN 0, 30, 100, 300 MG/KG FOR DURATION OF STUDY (STUDY DURATION: 2 YR), Dose: 0, 100, 300, 900 MG/KG IN DIET FOR 316 D THEN 0, 30, 100, 300 MG/KG FOR DURATION OF STUDY (STUDY DURATION: 2 YR)): inactive; negative
- carcinogen call (Species: RAT, Strain/Sex: SPRAGUE-DAWLEY/MALE, Route: ORAL, Dose: 0, 100, 300, 900 MG/KG IN DIET FOR 316 D THEN 0, 30, 100, 300 MG/KG FOR DURATION OF STUDY (STUDY DURATION: 2 YR), Dose: 0, 100, 300, 900 MG/KG IN DIET FOR 316 D THEN 0, 30, 100, 300 MG/KG FOR DURATION OF STUDY (STUDY DURATION: 2 YR)): inactive; negative

SMILES: O=[Si]=O
- carcinogen call (Species: MOUSE, Strain/Sex: STRAIN-A/MALE, Route: INTRATRACHEAL, Dose: 0, 9.75 MG/KG IN SALINE 1/WK FOR 15 WK (STUDY DURATION: 20 WK)): inactive; negative
- carcinogen call (Species: RAT, Strain/Sex: F344/FEMALE, Route: INHALATION, Dose: 0, 50 MG/M3 6 HR/D 5 D/WK FOR UP TO 24 MO (STUDY DURATION: 24 MO), Tumor Site: Type of Lesion: LUNG: CARCINOMA OR ADENOMA): active; positive
- carcinogen call (Species: RAT, Strain/Sex: F344/MALE,FEMALE, Route: INHALATION, Dose: 0, 1 MG/M3 6 HR/D 5 D/WK FOR 24 MO (STUDY DURATION: 25.5 MO), Tumor Site: Type of Lesion: LUNG: TUMOR): active; positive
- carcinogen call (Species: RAT, Strain/Sex: F344/MALE, Route: INHALATION, Dose: 0, 50 MG/M3 6 HR/D 5 D/WK FOR UP TO 24 MO (STUDY DURATION: 24 MO)): inactive; negative
- carcinogen call (Species: RAT, Strain/Sex: INBRED-W/MALE, FEMALE, Route: INTRAPERITONEAL, Dose: 20 MG ALKALINE-WASHED MIN-U-SIL CRYSTALS (A COMMERCIAL FINE QUARTZ, 99% PURE) IN 0.4 ML SALINE AUTOCLAVED SUSPENSION (ST, Tumor Site: Type of Lesion: HEMATOPOIETIC SYSTEM: THYMOMA OR LYMPHOSARCOMA, LYMPHOMA): active; positive
- carcinogen call (Species: RAT, Strain/Sex: INBRED-W/MALE, FEMALE, Route: INTRAPLEURAL, Dose: 20 MG ALKALINE-WASHED CRYSTALS (CRISTABOLITE FROM QUARTZ EXPOSED TO HIGH TEMPERATURE) IN A 0.4 ML SALINE AUTOCLAVED SUSP, Tumor Site: Type of Lesion: HEMATOPOIETIC SYSTEM: MALIGNANT HISTIOCYTIC LYMPHOMA, THYMOMA OR LYMPHOSARCOMA, LYMPHOMA): active; positive
- carcinogen call (Species: RAT, Strain/Sex: INBRED-W/MALE, FEMALE, Route: INTRAPLEURAL, Dose: 20 MG ALKALINE-WASHED CRYSTALS <5 µM IN SIZE IN A 0.4 ML SALINE AUTOCLAVED SUSPENSION INTO RIGHT AXILLA (STUDY DURATION:, Tumor Site: Type of Lesion: HEMATOPOIETIC SYSTEM: MALIGNANT HISTIOCYTIC LYMPHOMA, MALIGNANT TUMOR): active; positive
- carcinogen call (Species: RAT, Strain/Sex: INBRED-W/MALE, FEMALE, Route: INTRAPLEURAL, Dose: 20 MG ALKALINE-WASHED MIN-U-SIL CRYSTALS (A COMMERCIAL FINE QUARTZ, 99% PURE) IN 0.4 ML SALINE AUTOCLAVED SUSPENSION INT, Tumor Site: Type of Lesion: HEMATOPOIETIC SYSTEM: LYMPHOMA): active; positive
- carcinogen call (Species: Rat, Strain/Sex: Wistar/Female (48/group), Route: Intratracheal, Dose: 3 mg of 0.09-0.2 um particles given as 10 instillations before wk 26, study duration 112 wk or no treatment, Tumor Site: Type of Lesion: Lung: Bronchiolo-alveolar adenoma (2/37 experimental animals vs 0/46 control animals)): active; positive, low incidence of benign tumors.
